Test [1] has as its system Pseudoperonospora cubensis. The experiment in a line: Test for controlling effect on downy mildew of cucumber. In kind it is in vivo. The following applies: 168 h, 200 ppm spray, one day before inoculation, cucumber 2-leaf stage, read-out: Controlling effect (control of disease), Downy mildew of cucumber. The procedure: 2-2 Test for controlling effect on downy mildew of cucumber (Pseudoperonospora cubensis) A test compound adjusted to 200 ppm was sprayed onto cucumber at the 2-leaf stage cultivated in pots. After one day, the cucumber was inoculated by spraying the zoospore suspension of Pseudoperonospora cubensis. After inoculation, the cucumber was placed in a 25° C.-humid room for 1 day and then in a greenhouse for 6 days. Thus, the cucumber was made to be infected with downy mildew. The control of disease of the test compound is calculated by comparing the degree of infection of each leaf with that in the untreated plot. The control of disease is shown as a controlling effect in the same manner as in Test Example 2-1.

For test [2], the system named is Tyromyces palustris. The experiment in a line: Test for wood rotting-preventing effect (mycelium growth inhibition on malt extract agar). It is filed as cell-based. The following applies: 28° C.±2° C., 2 to 10 days, read-out: Rotting preventing effect (mycelium growth-inhibitory rate), TYP. How it is done: (§1) The following fungi were cultured in agar media, respectively, and mycelial disks on the media were stamped out together with the agar using a cork borer of 4 mm in diameter. The resulting mycelial disks on agar were used as an inoculum. Each test compound of 50 ppm was added to a malt extract agar medium and added in parts to Petri dishes. The above prepared inoculum was put on the Petri dishes and cultured at 28° C.±2° C. Two to ten days after inoculation, the diameter of the mycelial disk of each fungus was measured, and the mycelium growth-inhibitory rate was obtained according to the following equation. [formula] The mycelium growth-inhibitory rate (%) is indicated by the following symbols as a fungicidal effect on each fungus, and the results are shown in Table 2. | TYP: Tyromyces palustris

Test [3] concerns Rhizopus nigricans. The description is as above. It is filed as cell-based. The following applies: Rhizopus stolonifer, 28° C.±2° C., 2 to 10 days, read-out: Rotting preventing effect (mycelium growth-inhibitory rate), RHN. The procedure:
as §1, with “RHN: Rhizopus nigricans” for “TYP: Tyromyces palustris”

In test [4] the test system is Aspergillus niger. The description is as above. It is filed as cell-based. The following applies: 28° C.±2° C., 2 to 10 days, read-out: Rotting preventing effect (mycelium growth-inhibitory rate), ASN. The procedure: as §1, with “ASN: Aspergillus niger” for “TYP: Tyromyces palustris”
Test [5] deals with Gibberella fujikuroi ("Bakanae" disease of rice). The experiment in a line: Test for rice seed-disinfecting effect. It is filed as in vivo. The following applies: Fusarium fujikuroi, 504 h, seed immersion 25° C. 24 hours, three weeks after treatment, read-out: Controlling effect (control of disease), "Bakanae" disease of rice. How it is done: 2-1 Test for rice seed-disinfecting effect
Unhulled rice infected with Gibberella fujikuroi ("Bakanae" disease of rice) was immersed in a test compound adjusted to 1000 ppm at 25° C. for 24 hours. Water was lightly swished off the seed, which was then sowed and germinated for two days. Three weeks after treatment with the solution containing the compound, the rate of the infected seedlings was examined, and the control of disease was calculated by comparison with that of the untreated plot. The control of disease was shown as a controlling effect on the basis of the following standard.

The subject of test [6] is Trichoderma viride. The test is described as follows: Test for wood rotting-preventing effect (mycelium growth inhibition on malt extract agar). In kind it is cell-based. The following applies: 28° C.±2° C., 2 to 10 days, read-out: Rotting preventing effect (mycelium growth-inhibitory rate), TRV. How it is done:
as §1, with “TRV: Trichoderma viride” for “TYP: Tyromyces palustris”

Test [7] deals with Rhizoctonia solani. The test is described as follows: Test for controlling effect on sheath blight of rice. It is filed as in vivo. The following applies: 120 h, 200 ppm spray, 24 hours after inoculation, rice 4-leaf stage, five days after inoculation, read-out: Controlling effect (control of disease), Sheath blight of rice. The procedure: 2-3 Test for controlling effect on sheath blight of rice (Rhizoctonia solani) Rice seedlings at the 4-leaf stage were inoculated with the mycelium of sheath blight of rice (Rhizoctonia solani). After 24 hours, a test medicine solution adjusted to 200 ppm was sprayed onto the seedlings. After air-drying, the seedlings were placed in a humid room for 24 hours where the temperature was kept at 28° C. and humidity was kept at 98%. Thereafter, the seedlings were transferred to a greenhouse, and five days after inoculation, the degree of infected area was examined. The control of disease was calculated by comparison with that in the untreated plot. The control of disease is shown as a controlling effect in the same manner as in Test Example 2-1.

With `CCSc1snc(OCOCC#CI)c1C#N` [Compound 86, 3-(3-iodo-2-propynyloxymethyloxy)-4-cyano-5-ethylthioisothiazole], the pest or weed control at 200 ppm in test [1] lay within 95 to 100%; in test [7] it was 80 to 94%. The inhibition at 50 ppm in test [2], in test [3], in test [4] and in test [6] was 95 to 100% each time. Further, the pest or weed control at 1000 ppm in test [5] is 95 to 100%.
For `C=CCSc1snc(SCOCC#CI)c1C#N` [Compound 132], the inhibition at 50 ppm in test [2], in test [3], in test [4] and in test [6] was 95 to 100% each time.
Turning to `COc1nsc(OCCC#CI)c1C#N` [Compound 80, 3-methoxy-4-cyano-5-(4-iodo-3-butynyloxy)isothiazole], the pest or weed control at 200 ppm fell in the range of 95 to 100% in test [1] and 80 to 94% in test [7]. The inhibition at 50 ppm in test [2], in test [3], in test [4] and in test [6] was 95 to 100% each time. In addition, the pest or weed control at 1000 ppm in test [5] fell in the range of 95 to 100%.
`C=CCSc1snc(OCC#CI)c1C#N` [Compound 8]: the results for the pest or weed control at 200 ppm in test [1] and in test [7] were 95 to 100% and 60 to 79%, respectively. In addition, the pest or weed control at 1000 ppm in test [5] fell in the range of 95 to 100%.
Consider `CC(C)Sc1snc(OCCC#CI)c1C#N` [Compound 72], for which the inhibition at 50 ppm in test [2], in test [3], in test [4] and in test [6] was 95 to 100% throughout.
For the molecule `CCSc1snc(SCOCC#CI)c1C#N` [Compound 129], the inhibition at 50 ppm in test [2] fell in the range of 95 to 100%; in test [3], 80 to 94%; in test [4] it was 80 to 94%; in test [6], 95 to 100%.
`COCCSc1snc(OCC#CI)c1C#N` [Compound 15]: the pest or weed control at 200 ppm in test [1] and in test [7] was 80 to 94% each time. For the same molecule, in test [5], the pest or weed control at 1000 ppm lay in the range of 95 to 100%.
Take `CCSc1snc(OCC#CI)c1C#N` [Compound 2]: the inhibition at 50 ppm fell in the range of 95 to 100% in test [2], 80 to 94% in test [3], 60 to 79% in test [4] and 80 to 94% in test [6].
Regarding `CC(C)Oc1nsc(OCC#CI)c1C#N` [Compound 51], the inhibition at 50 ppm in test [2], in test [3], in test [4] and in test [6] was 95 to 100% in each case.
Consider `N#Cc1c(OCC#CI)nsc1S(=O)(=O)C1CCCC1` [Compound 46], for which the inhibition at 50 ppm in test [2] lay in the range of 95 to 100%; in test [3], 60 to 79%; in test [4], 80 to 94%; in test [6], 60 to 79%.
In the case of `C=CC[S+]([O-])c1snc(OCC#CI)c1C#N` (centres unmarked) [Compound 47], the pest or weed control at 200 ppm in test [1] lay within 80 to 94%; in test [7] it was 95 to 100%. Besides, the pest or weed control at 1000 ppm in test [5] is 95 to 100%.
On to `CSc1snc(OCOCC#CI)c1C#N` [Compound 85], for which the inhibition at 50 ppm in test [2], in test [3], in test [4] and in test [6] was 95 to 100% in each case.
In the case of `N#Cc1c(OCC#CI)nsc1SCOCC#CI` [Compound 142], the inhibition at 50 ppm in test [2], in test [3], in test [4] and in test [6] was 95 to 100% in each case.
With `CC(C)Oc1snc(OCOCC#CI)c1C#N` [Compound 98], the inhibition at 50 ppm in test [2], in test [3], in test [4] and in test [6] was 95 to 100% each time.
With `N#CCSc1snc(OCC#CI)c1C#N` [Compound 17], the pest or weed control at 200 ppm in test [1] and in test [7] was 95 to 100% in each case. The pest or weed control at 1000 ppm in test [5] lay within 95 to 100%.
As for `CCCCN(C)c1snc(OCC#CI)c1C#N` [Compound 32], the results for the pest or weed control at 200 ppm in test [1] and in test [7] were 95 to 100% and 60 to 79%, respectively. For the same molecule, in test [5], the pest or weed control at 1000 ppm lay in the range of 80 to 94%.
With `C#CCSc1snc(OCC#CI)c1C#N` [Compound 10], the inhibition at 50 ppm fell in the range of 95 to 100% in test [2], 80 to 94% in test [3], 95 to 100% in test [4] and 80 to 94% in test [6].
Regarding `COc1snc(OCOCC#CI)c1C#N` [Compound 95], the inhibition at 50 ppm in test [2], in test [3], in test [4] and in test [6] was 95 to 100% in each case.
`CCCSc1snc(OCOCC#CI)c1C#N` [Compound 87]: the inhibition at 50 ppm in test [2], in test [3], in test [4] and in test [6] was 95 to 100% throughout.
With `N#Cc1c(OCC#CI)nsc1SC1CCCC1` [Compound 7], the inhibition at 50 ppm in test [2] was in the range of 95 to 100%; in test [3], 60 to 79%; in test [4] it was 60 to 79%; in test [6], 60 to 79%.
In the case of `N#Cc1c(SCOCC#CI)nsc1SCOCC#CI` [Compound 140], the pest or weed control at 200 ppm in test [1] lay in the range of 95 to 100%; in test [7], 80 to 94%. Also, the pest or weed control at 1000 ppm in test [5] lay in the range of 80 to 94%.
Take `CCOc1snc(OCOC(C)C#CI)c1C#N` (centres unmarked) [Compound 114]: the pest or weed control at 200 ppm lay within 95 to 100% in test [1] and 80 to 94% in test [7]. For the same molecule, the pest or weed control at 1000 ppm in test [5] lay within 95 to 100%.
`COCCOc1nsc(OCCC#CI)c1C#N` [Compound 84]: the inhibition at 50 ppm in test [2], in test [3], in test [4] and in test [6] was 95 to 100% throughout.
Turning to `CCOc1nsc(SC(C)OCC#CI)c1C#N` (centres unmarked) [Compound 126], the inhibition at 50 ppm in test [2], in test [3], in test [4] and in test [6] was 95 to 100% each time.
